Results taken from patent US7799821B2, “Therapeutic compounds” (Allergan, Inc., priority 2004, dated 2010).

Key:
hFP = target: T1, hFP (Homo sapiens, UniProt P43088); assay: FLIPR calcium signal, hFP; assay type: cell-based; settings: Table 3, third part
T1 construct: expressed in transfected cells; host or cells: HEK-293(EBNA)
Experimental: (§1) HEK-293(EBNA) cells, stably expressing one type or subtype of recombinant human prostaglandin receptors (prostaglandin receptors expressed: hDP/Gqs5; hEP1; hEP2/Gqs5; hEP3A/Gqi5; hEP4/Gqs5; hFP; hIP; hTP), were cultured in 100 mm culture dishes in high-glucose DMEM medium containing 10% fetal bovine serum, 2 mM 1-glutamine, 250 μg/ml geneticin (G418) and 200 μg/ml hygromycin B as selection markers, and 100 units/ml penicillin G, 100 μg/ml streptomycin and 0.25 μg/ml amphotericin B. • (b) Calcium Signal Studies on the FLIPR™
(§2) Cells were seeded at a density of 5×10^4 cells per well in Biocoat® Poly-D-lysine-coated black-wall, clear-bottom 96-well plates (Becton-Dickinson) and allowed to attach overnight in an incubator at 37° C. Cells were then washed two times with HBSS-HEPES buffer (Hanks Balanced Salt Solution without bicarbonate and phenol red, 20 mM HEPES, pH 7.4) using a Denley Cellwash plate washer (Labsystems). After 45 minutes of dye-loading in the dark, using the calcium-sensitive dye Fluo-4 AM at a final concentration of 2 μM, plates were washed four times with HBSS-HEPES buffer to remove excess dye leaving 100 μl in each well. Plates were re-equilibrated to 37° C. for a few minutes.
(§3) Cells were excited with an Argon laser at 488 nm, and emission was measured through a 510-570 nm bandwidth emission filter (FLIPR™, Molecular Devices, Sunnyvale, Calif.). Drug solution was added in a 50 μl volume to each well to give the desired final concentration. The peak increase in fluorescence intensity was recorded for each well. On each plate, four wells each served as negative (HBSS-HEPES buffer) and positive controls (standard agonists: BW245C (hDP); PGE2 (hEP1; hEP2/Gqs5; hEP3A/Gqi5; hEP4/Gqs5); PGF2α (hFP); carbacyclin (hIP); U-46619 (hTP), depending on receptor). The peak fluorescence change in each drug-containing well was then expressed relative to the controls.
Compounds were tested in a high-throughput (HTS) or concentration-response (CoRe) format. […]

hEP1 = target: T2, hEP1 (Homo sapiens, UniProt P34995); assay: FLIPR calcium signal, hEP1; assay type: cell-based; settings: Table 3, third part
T2 construct: expressed in transfected cells; host or cells: HEK-293(EBNA)
T2 sequence (P34995 1-402): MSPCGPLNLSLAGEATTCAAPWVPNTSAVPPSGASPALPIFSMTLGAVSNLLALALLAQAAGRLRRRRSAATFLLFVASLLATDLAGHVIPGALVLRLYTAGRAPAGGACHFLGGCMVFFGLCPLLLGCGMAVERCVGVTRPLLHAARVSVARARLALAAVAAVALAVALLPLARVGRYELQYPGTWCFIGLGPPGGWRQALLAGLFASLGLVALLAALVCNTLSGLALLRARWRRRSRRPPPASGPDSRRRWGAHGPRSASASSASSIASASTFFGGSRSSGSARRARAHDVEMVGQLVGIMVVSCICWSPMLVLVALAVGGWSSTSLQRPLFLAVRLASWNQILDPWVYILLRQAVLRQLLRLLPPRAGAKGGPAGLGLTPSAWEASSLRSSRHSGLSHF
Experimental: as §1, §2, §3
(§4) Compounds were tested in a high-throughput (HTS) or concentration-response (CoRe) format. In the HTS format, forty-four compounds per plate were examined in duplicates at a concentration of 10^−5 M. To generate concentration-response curves, four compounds per plate were tested in duplicates in a concentration range between 10^−5 and 10^−11 M. The duplicate values were averaged. In either, HTS or CoRe format each compound was tested on at least 3 separate plates using cells from different passages to give an n≧3.

hEP4/Gqs5 = target: T3, hEP4/Gqs5 (Homo sapiens, UniProt P35408); assay: FLIPR calcium signal, hEP4; assay type: cell-based; settings: Table 3, third part
T3 construct: expressed in transfected cells; host or cells: HEK-293(EBNA)
T3 sequence (P35408 whole entry): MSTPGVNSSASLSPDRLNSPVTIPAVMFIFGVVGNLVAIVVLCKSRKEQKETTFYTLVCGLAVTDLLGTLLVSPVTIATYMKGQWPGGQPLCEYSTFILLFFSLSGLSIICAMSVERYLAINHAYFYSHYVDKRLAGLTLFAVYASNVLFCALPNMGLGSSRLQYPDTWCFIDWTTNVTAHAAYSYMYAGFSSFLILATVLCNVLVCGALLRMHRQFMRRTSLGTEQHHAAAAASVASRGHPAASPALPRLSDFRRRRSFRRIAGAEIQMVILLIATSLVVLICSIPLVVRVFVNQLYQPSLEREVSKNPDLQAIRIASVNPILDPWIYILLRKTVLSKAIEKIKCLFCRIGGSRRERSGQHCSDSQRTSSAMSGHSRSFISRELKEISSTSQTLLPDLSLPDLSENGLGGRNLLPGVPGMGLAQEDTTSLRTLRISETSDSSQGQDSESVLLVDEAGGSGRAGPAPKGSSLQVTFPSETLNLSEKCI
How it was run: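 HEK-293(EBNA) cells stably expressing the recombinant human receptor were loaded with 2 μM Fluo-4 AM for 45 min and read on FLIPR at 37° C in HBSS-HEPES pH 7.4. Peak fluorescence rise was expressed relative to buffer and standard agonist controls (BW245C, PGE2 or U-46619 by receptor); compounds were run 10^−5 to 10^−11 M in duplicate, n≧3.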

hTP = target: T4, hTP (Homo sapiens, UniProt P21731); assay: FLIPR calcium signal, hTP; assay type: cell-based; settings: Table 3, third part
T4 construct: expressed in transfected cells; host or cells: HEK-293(EBNA)
T4 sequence (P21731 1-343): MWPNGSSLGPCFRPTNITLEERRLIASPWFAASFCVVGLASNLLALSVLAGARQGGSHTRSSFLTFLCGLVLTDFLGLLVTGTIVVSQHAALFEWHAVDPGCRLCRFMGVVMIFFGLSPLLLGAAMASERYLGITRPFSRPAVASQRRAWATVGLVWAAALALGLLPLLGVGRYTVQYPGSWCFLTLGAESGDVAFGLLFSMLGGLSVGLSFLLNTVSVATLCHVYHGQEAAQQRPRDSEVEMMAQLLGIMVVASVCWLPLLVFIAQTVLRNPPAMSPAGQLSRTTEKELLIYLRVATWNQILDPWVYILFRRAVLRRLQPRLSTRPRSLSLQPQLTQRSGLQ
Experimental: as §1, §2, §3, §4

hIP = target: T5, hIP (Homo sapiens, UniProt P43119); assay: FLIPR calcium signal, hIP; assay type: cell-based; settings: Table 3, third part
T5 construct: expressed in transfected cells; host or cells: HEK-293(EBNA)
T5 sequence (P43119 whole entry): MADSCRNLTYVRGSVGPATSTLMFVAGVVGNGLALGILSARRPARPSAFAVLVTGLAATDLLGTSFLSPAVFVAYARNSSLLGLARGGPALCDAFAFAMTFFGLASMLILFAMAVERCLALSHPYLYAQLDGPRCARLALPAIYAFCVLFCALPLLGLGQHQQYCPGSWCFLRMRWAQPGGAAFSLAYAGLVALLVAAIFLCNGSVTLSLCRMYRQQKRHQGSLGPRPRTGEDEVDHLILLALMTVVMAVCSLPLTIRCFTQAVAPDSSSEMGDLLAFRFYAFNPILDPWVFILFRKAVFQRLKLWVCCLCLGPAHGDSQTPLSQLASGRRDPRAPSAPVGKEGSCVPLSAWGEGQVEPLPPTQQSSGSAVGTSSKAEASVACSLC
Experimental: as §1, §2, §3, §4

rabbits = assay: Ocular surface hyperemia, rabbits; assay type: in vivo; settings: score
Experimental: (§5) Ocular surface hyperemia was visually assessed and scored according to a system typically used clinically.
(§6) Ocular surface hyperemia was evaluated at the same time points as intraocular pressure measurement. It should be noted that untreated dog eyes frequently have a pink/red tone. Thus, values of trace or even mild are not necessarily out of the normal range. Similar tests were used to determine ocular surface hyperemia on monkeys and rabbits.

monkeys = assay: Intraocular pressure (IOP) in monkeys; assay type: in vivo
Beagle dogs [1] = assay: Intraocular pressure (IOP) in dogs, pneumatonometry; assay type: in vivo; settings: topical
Experimental: (§7) Intraocular pressure studies in dogs involved pneumatonometry performed in conscious, Beagle dogs of both sexes (10-15 kg). The animals remained conscious throughout the study and were gently restrained by hand. Drugs were administered topically to one eye as a 25 μL volume drop, the other eye received 25 μL vehicle (0.1% (w/v) polysorbate 80; 10 mM TRIS) as a control. Proparacaine (0.1% w/v) was used for corneal anesthesia during tonometry. Intraocular pressure was determined just before drug administration and at 2, 4 and 6 hr thereafter on each day of the 5 day study. Drug was administered immediately after the first IOP reading.
as §7, with “(0.1%” for “(0.1% (w/v)”, “80:10” for “80; 10”, “(0.1%)” for “(0.1% w/v)”

Beagle dogs [2] = assay: Ocular surface hyperemia, dogs; assay type: in vivo; design: key: 0.5: <1 trace; 1 mild; 2: moderate; 3: severe; settings: score
Experimental: as §5, §6

T1 sequence (P43088 whole entry): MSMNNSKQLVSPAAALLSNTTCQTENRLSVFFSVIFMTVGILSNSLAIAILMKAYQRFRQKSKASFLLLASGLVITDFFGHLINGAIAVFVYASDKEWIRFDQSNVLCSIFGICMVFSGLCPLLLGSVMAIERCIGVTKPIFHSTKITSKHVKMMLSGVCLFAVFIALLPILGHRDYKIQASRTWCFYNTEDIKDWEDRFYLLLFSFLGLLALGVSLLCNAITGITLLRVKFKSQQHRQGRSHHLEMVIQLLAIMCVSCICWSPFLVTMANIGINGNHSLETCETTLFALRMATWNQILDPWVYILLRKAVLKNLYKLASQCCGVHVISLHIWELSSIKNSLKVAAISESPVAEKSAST

SMILES: CCCCCC(O)c1ccc([C@@H]2[C@@H](C/C=C\CCCC(=O)O)[C@H](Cl)C[C@@H]2Cl)cc1 (stereo partly drawn)
- Ca2+ Signal-EC50 (nM) FP (hFP): not active
- Ca2+ Signal-EC50 (nM) EP1 (hEP1): not active
- EC50 (hEP4/Gqs5; read-out: Ca2+ Signal-EC50 (nM) EP4): 10000 nM
- Ca2+ Signal-EC50 (nM) TP (hTP): not active
- Ca2+ Signal-EC50 (nM) IP (hIP): not active

SMILES: CCCCCC(O)c1ccc([C@@H]2[C@@H](C/C=C\CCCC(=O)O)[C@H](Cl)C[C@H]2Cl)cc1 (stereo partly drawn)
- Ca2+ Signal-EC50 (nM) FP (hFP): not active
- Ca2+ Signal-EC50 (nM) EP1 (hEP1): not active
- Ca2+ Signal-EC50 (nM) EP4 (hEP4/Gqs5): not active
- Ca2+ Signal-EC50 (nM) TP (hTP): not active
- Ca2+ Signal-EC50 (nM) IP (hIP): not active

SMILES: CC(C)OC(=O)CCCCCC[C@@H]1[C@@H](c2ccc(C(C)(C)C)cc2)[C@H](O)C[C@H]1Cl
- RABBIT Max. hyperemia (rabbits; Conc. 0.01% g/100 mL): 0.1
- MONKEY Max. ΔIOP (mm Hg) (monkeys; Conc. 0.01% g/100 mL): 8 mm Hg

SMILES: CC(C)OC(=O)CCC/C=C\C[C@@H]1[C@@H](c2ccc(C(O)C3CCCCC3)cc2)[C@H](O)C[C@H]1Cl (stereo partly drawn)
- DOG Max. ΔIOP (mm Hg) (Beagle dogs [1]; Conc. 0.01% g/100 mL): −4 mm Hg
- DOG Max. hyperemia (Beagle dogs [2]; Conc. 0.01% g/100 mL): 0.6
- MONKEY Max. ΔIOP (mm Hg) (monkeys; Conc. 0.01% g/100 mL): 5 mm Hg

SMILES: O=C(O)CCC/C=C\C[C@@H]1[C@@H](c2ccc3c(c2)CCC3O)[C@H](O)C[C@H]1Cl (stereo partly drawn)
- DOG Max. ΔIOP (mm Hg) (Beagle dogs [1]; Conc. 0.30% g/100 mL): −7 mm Hg
- DOG Max. hyperemia (Beagle dogs [2]; Conc. 0.30% g/100 mL): 1
- MONKEY Max. ΔIOP (mm Hg) (monkeys; Conc. 0.30% g/100 mL): 7 mm Hg

SMILES: CC(C)OC(=O)CCC/C=C\C[C@@H]1[C@@H](c2ccc3c(c2)CCC3O)[C@H](O)C[C@H]1Cl (stereo partly drawn)
- DOG Max. ΔIOP (mm Hg) (Beagle dogs [1]; Conc. 0.10% (0.1%) g/100 mL): −12 mm Hg
- RABBIT Max. hyperemia (rabbits; Conc. 0.10% (0.1%) g/100 mL): 0.25

SMILES: CC(C)OC(=O)CCC/C=C\C[C@@H]1[C@@H](c2ccc(C(C)(C)CO)cc2)[C@H](O)C[C@H]1Cl
- DOG Max. ΔIOP (mm Hg) (Beagle dogs [1]; Conc. 0.10% (0.1%) g/100 mL): −5 mm Hg
- DOG Max. hyperemia (Beagle dogs [2]; Conc. 0.10% (0.1%) g/100 mL): 0.7
- RABBIT Max. hyperemia (rabbits; Conc. 0.10% (0.1%) g/100 mL): 0.1
- MONKEY Max. ΔIOP (mm Hg) (monkeys; Conc. 0.10% (0.1%) g/100 mL): 6 mm Hg
